Measurements taken from patent US8703790B2, “Bis [O-(14-benzoylaconine-8-yl)] esters” (priority 2008, dated 2014).

What was measured:
MCF-7 (breast cancer) = experiment: In vitro cytotoxicity test (MTT) against human tumour cell line MCF-7; assay type: cell-based; settings: MCF-7, 24 h contact, 48 h re-growth
Method: (§1) Human tumour cell lines A549 (lung cancer), HCT-15 (colon cancer) and MCF-7 (breast cancer) have been obtained from the Developmental Therapeutics Program of the National Cancer Institute (Rockville, Md., USA). Cells were routinely grown with RPMI 1640 medium supplemented with 10% foetal calf serum, both obtained from Biochrom AG (Berlin, Germany). They were grown on Petri dishes (Nunc, Denmark) at 37° C. in a humidified atmosphere containing 5% CO2. Cells were replicated every 4 days and the medium changed once in-between.
(§2) Cytotoxicity has been evaluated on exponentially growing cells grown for 24 h in presence of the compounds to be tested. Briefly, 4000 cells were seeded in 96-well plates with 200 μL of complete medium; 24 hours later the medium was supplemented with a series of different concentrations of compounds and the contact maintained for 24 h. Compounds were dissolved in pure water and sterilised using polycarbonate membrane filters of 0.22 μm (Millipore, Molsheim, France). The cells were then allowed to re-grow for 48 hours; viable and metabolically active cells were quantitatively estimated by coloration with the MTT dye (1-(4,5-dimethylthyazol-2-yl)-3,5-diphenylformazan), Sigma-Aldrich Chimie, Saint-Quentin-Fallavier, France). The amount of substance allowing a 50% decrease in cell numbers is indicative of the cytotoxicity and represents the IC50 of compound.

HCT-15 (colon cancer) = experiment: In vitro cytotoxicity test (MTT) against human tumour cell line HCT-15; assay type: cell-based; settings: HCT-15, 24 h contact, 48 h re-growth
Method: as §1, §2

A549 (lung cancer) = experiment: In vitro cytotoxicity test (MTT) against human tumour cell line A549; assay type: cell-based; settings: A549, 24 h contact, 48 h re-growth
Method: as §1, §2

HCT-15 = settings: HCT-15, NCI data base values; cited from earlier work
MCF-7 = settings: MCF-7, NCI data base values; cited from earlier work
A549 = settings: A549, NCI data base values; cited from earlier work
[1] = test system: HTC-15 (colon cancer), A549 (lung cancer), MCF-7 (breast cancer); settings: HTC-15, A549, MCF-7; publication A. Chodoeva et al.; read-out: IC50 in these three cell lines; cited from earlier work
mouse tumours = mouse tumours in vivo; cited from earlier work
[2] = test system: mitochondrial oxidoreductases; settings: tumour cells; Picardo et al. 1985; cited from earlier work
[3] = background statement; cited from earlier work

SMILES | IC50 (MCF-7 (breast cancer)) [µM] | IC50 (HCT-15 (colon cancer)) [µM] | IC50 (A549 (lung cancer)) [µM] | IC50 (HCT-15) [µM] | IC50 (MCF-7) [µM] | IC50 (A549) [µM] | other results
CCN1C[C@]2(COC)[C@H](O)C[C@H](OC)[C@]34C1[C@H]([C@H](OC)[C@H]23)[C@]1(OC(=O)CCCCCCCC(=O)O[C@]23[C@H]5[C@@H](OC(=O)c6ccccc6)[C@](O)(C[C@H]5[C@@]56C7[C@@H]2[C@H](OC)[C@@H]5[C@](COC)(CN7CC)[C@H](O)C[C@@H]6OC)[C@@H](OC)[C@@H]3O)[C@H]2[C@@H](OC(=O)c3ccccc3)[C@](O)(C[C@H]24)[C@@H](OC)[C@@H]1O [ADD, bis[O-(14-benzoylaconine-8-yl)]-azelate] | 15.5 | 22 | 19.1 |  |  |  | 
N[C@@H](Cc1ccc(N(CCCl)CCCl)cc1)C(=O)O [mephalan] |  |  |  | 39.4 | 11.1 | 28.7 | 
CCN1CC2(COC)C(O)CC(OC)C34C5CC6(O)C(OC)C(O)C(OC(=O)CCCCCCCC(=O)O)(C5C6OC(=O)c5ccccc5)C(C(OC)C23)C14 (stereo not shown) [8-O-azeloyl-14-benzoylaconine, reference compound] | 10.3 | 19.4 | 16.8 |  |  |  | IC50 [1]: 10 to 18 µM
N.N.[Cl][Pt][Cl] [cisplatin] |  |  |  | 7.21 | 3.01 | 3.08 | 
COc1cc([C@@H]2c3cc4c(cc3[C@@H](O[C@@H]3O[C@@H]5CO[C@@H](C)O[C@H]5[C@H](O)[C@H]3O)[C@H]3COC(=O)[C@H]23)OCO4)cc(OC)c1O [etoposide] |  |  |  | 17.6 | 5.73 | 3.61 | 
O=C(O)CCCCCCCC(=O)O [Azelaic acid, azelaic acid] |  |  |  |  |  |  | antitumour activity (mouse tumours): total absence of antitumour activity; inhibition of mitochondrial oxidoreductases [2]: inhibitor of mitochondrial oxidoreductases
O=c1[nH]cc(F)c(=O)[nH]1 [5-FU, fluorouracil] |  |  |  | 5.69 | 1.75 | 2.11 | 
CCN1C[C@]2(COC)[C@H](O)C[C@H](OC)[C@]34C1[C@H]([C@H](OC)[C@H]23)[C@]1(O)[C@H]2[C@@H](O)[C@](O)(C[C@H]24)[C@@H](OC)[C@@H]1O [Aconine] |  |  |  |  |  |  | antiproliferative activity [3]: devoid of antiproliferative activity
CCN1C[C@]2(COC)[C@H](O)C[C@H](OC)[C@]34C1[C@H]([C@H](OC)[C@H]23)[C@]1(OC(=O)CCCCCC(=O)O[C@]23[C@H]5[C@@H](OC(=O)c6ccccc6)[C@](O)(C[C@H]5[C@@]56C7[C@@H]2[C@H](OC)[C@@H]5[C@](COC)(CN7CC)[C@H](O)C[C@@H]6OC)[C@@H](OC)[C@@H]3O)[C@H]2[C@@H](OC(=O)c3ccccc3)[C@](O)(C[C@H]24)[C@@H](OC)[C@@H]1O [PDD, bis[O-(14-benzoylaconine-8-yl)]-pimelate] | 7.5 | 3.76 | 3.76 |  |  |  | 
